Results on 42 compounds are retold here after ChEMBL document CHEMBL3286176, “Discovery and structure-activity relationship of novel 2,3-dihydrobenzofuran-7-carboxamide and 2,3-dihydrobenzofuran-3(2H)-one-7-carboxamide derivatives as poly(ADP-ribose)polymerase-1 inhibitors” (J Med Chem, 2014).

Test system in the first data set: not listed separately
The experiment in a line: Cytotoxicity against chicken BRCA2-deficient DT40 cells assessed as cell viability after 72 hrs by ATPlite assay.
Conditions: not given
Format: cell-based, Gallus gallus.
As to `CN1CCN(CCOc2ccc(/C=C3\Oc4c(C(N)=O)cccc4C3=O)cc2)CC1`, the IC90 at 72 h came out at 5.2 µM.

The target of the next data set is Poly [ADP-ribose] polymerase 1 (Homo sapiens, UniProt P09874). Kind of data set: Inhibition of PARP-1 (unknown origin) using biotinylated NAD+ as substrate after 60 mins by spectrophotometry.
Chain of Poly [ADP-ribose] polymerase 1 (P09874 whole entry): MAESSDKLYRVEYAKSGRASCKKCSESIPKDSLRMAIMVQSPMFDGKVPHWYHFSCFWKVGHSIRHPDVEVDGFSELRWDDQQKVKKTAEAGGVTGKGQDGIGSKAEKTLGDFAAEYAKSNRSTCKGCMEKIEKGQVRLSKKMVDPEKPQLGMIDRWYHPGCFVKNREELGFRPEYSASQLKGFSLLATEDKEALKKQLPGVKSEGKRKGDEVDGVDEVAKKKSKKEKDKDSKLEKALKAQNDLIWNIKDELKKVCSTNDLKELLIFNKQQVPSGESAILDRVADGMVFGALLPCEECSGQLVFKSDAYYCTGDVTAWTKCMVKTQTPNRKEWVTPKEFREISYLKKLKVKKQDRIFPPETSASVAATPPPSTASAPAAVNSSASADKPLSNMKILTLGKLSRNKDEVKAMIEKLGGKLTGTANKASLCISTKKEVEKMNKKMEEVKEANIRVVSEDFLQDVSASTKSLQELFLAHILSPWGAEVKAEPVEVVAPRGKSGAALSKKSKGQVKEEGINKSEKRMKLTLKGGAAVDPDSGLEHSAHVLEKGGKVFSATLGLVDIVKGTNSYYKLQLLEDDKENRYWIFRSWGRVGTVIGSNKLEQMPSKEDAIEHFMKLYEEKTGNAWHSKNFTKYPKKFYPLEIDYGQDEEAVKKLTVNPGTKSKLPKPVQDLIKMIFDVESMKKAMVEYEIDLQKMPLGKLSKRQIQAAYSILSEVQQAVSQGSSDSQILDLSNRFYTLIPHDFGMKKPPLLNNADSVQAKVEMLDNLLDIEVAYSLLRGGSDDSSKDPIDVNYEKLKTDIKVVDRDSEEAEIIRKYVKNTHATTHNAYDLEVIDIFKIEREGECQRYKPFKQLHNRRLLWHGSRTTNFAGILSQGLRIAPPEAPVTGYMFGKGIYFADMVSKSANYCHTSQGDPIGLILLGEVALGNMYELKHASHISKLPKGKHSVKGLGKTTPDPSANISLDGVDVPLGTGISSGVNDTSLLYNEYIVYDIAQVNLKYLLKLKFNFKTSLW
Conditions: not given
With `NC(=O)c1cccc2c1O/C(=C\c1ccc(OCCN3CCCCC3)cc1)C2=O`, the IC50 is 0.544 µM. As for `NC(=O)c1cccc2c1O/C(=C\c1cc(O)cc(O)c1)C2=O`, the IC50 is more than 10 µM.

On to `NC(=O)c1cccc2c1O/C(=C\c1ccc(OCC3CO3)cc1)C2=O` (stereo unspecified), for which the IC50 came to 1.21 µM. With `NC(=O)c1cc(F)cc2c1OCC2`, inhibition was half-maximal at 2.12 µM (IC50). In turn, `NC(=O)c1cccc2c1O/C(=C\c1ccc(OCCCN3CCOCC3)cc1)C2=O` returned an IC50 of 0.718 µM. As to `CC1Cc2c(N)ccc(C(N)=O)c2O1` (single isomer, unassigned), the IC50 came out at 5.33 µM. `NC(=O)c1cc(N)cc2c1OCC2` showed an IC50 of more than 25 µM.

Regarding `CC1Cc2cc(N)cc(C(N)=O)c2O1` (stereo unspecified), the IC50 was more than 25 µM. For `NC(=O)c1cccc2c1OCC2`, inhibition was half-maximal at 9.45 µM (IC50). The same measure, in the same setting: next, `NC(=O)c1cc([N+](=O)[O-])cc2c1OCC2`: more than 25 µM; `CN1CCN(CCS(=O)(=O)Nc2ccc(/C=C3\Oc4c(C(N)=O)cccc4C3=O)cc2)CC1`: 0.079 µM. Take `NC(=O)c1cccc2c1O/C(=C\c1ccc(OCCN3CCN(c4ccc(F)cc4)CC3)cc1)C2=O`: the IC50 was 0.445 µM. The compound `NC(=O)c1cccc2c1O/C(=C\c1cccc(OCCN3CCOCC3)c1)C2=O` gave an IC50 of more than 10 µM.

In the case of `NC(=O)c1cccc2c1O/C(=C\c1ccc(OCC(O)CN3CCOCC3)cc1)C2=O` (stereo unspecified), the IC50 came out at 0.176 µM. `Cc1cc2c(c(C(N)=O)c1)OC(C)C2` (stereo unspecified) came in with an IC50 of more than 25 µM. For `C[C@@H]1Cc2cccc(C(N)=O)c2O1`, the IC50 worked out at 6.34 µM. The compound `NC(=O)c1cccc2c1OCC2=O` came in with an IC50 of 16.2 µM.

Consider `CC1Cc2cc(F)cc(C(N)=O)c2O1` (racemic), for which the midpoint of inhibition, the IC50, lay at 2.45 µM. Compound `C[C@H]1Cc2cc(F)cc(C(N)=O)c2O1` returned a concentration for half-maximal inhibition (IC50) of 3.62 µM.

On to `NC(=O)c1cccc2c1O/C(=C\c1ccc(O)c(O)c1)C2=O`, for which the 50% inhibitory concentration (IC50) was determined as 0.531 µM.

`CN1CCN(CCCS(=O)(=O)Nc2ccc(/C=C3\Oc4c(C(N)=O)cccc4C3=O)cc2)CC1` yielded an IC50 of 0.113 µM. `CC1Cc2c(N)ccc(C(N)=O)c2O1` (single isomer, unassigned; enantiomer 1) yielded a half-maximal inhibitory concentration (IC50) of 2.43 µM.

Take `NC(=O)c1cccc2c1O/C(=C\c1ccc(OCCN3CCOCC3)cc1)C2=O`: the IC50 is 2.07 µM. In the case of `C[C@H]1Cc2cccc(C(N)=O)c2O1`, it took 8.44 µM to reach half-maximal inhibition (IC50).

`NC(=O)c1cccc2c1O/C(=C\c1cccc(Oc3ccccc3)c1)C2=O` had an IC50 of 4.65 µM. Compound `COc1cc(/C=C2\Oc3c(C(N)=O)cccc3C2=O)ccc1O` gave an IC50 of 3.62 µM. The same measure, in the same setting: as for `NC(=O)c1cccc2c1O/C(=C\c1ccc(O)cc1O)C2=O`, the figure is 0.753 µM. Take `CC1Cc2cccc(C(N)=O)c2O1` (racemic): the IC50 was determined as 10.4 µM. The same measure, in the same setting: as for `NC(=O)c1cccc2c1O/C(=C\c1cccc(OCCN3CCCCC3)c1)C2=O`, the figure is more than 10 µM; as for `COc1ccc(/C=C2\Oc3c(C(N)=O)cccc3C2=O)cc1`, 3.3 µM; as for `CC1Cc2cc([N+](=O)[O-])cc(C(N)=O)c2O1` (stereo unspecified), more than 25 µM. In the case of `NC(=O)c1cccc2c1O/C(=C\c1ccc(O)cc1)C2=O`, the half-inhibitory concentration (IC50) was determined as 0.813 µM.

With `NC(=O)c1cccc2c1O/C(=C\c1cc(O)ccc1O)C2=O`, the IC50 is more than 10 µM. Compound `CN1CCN(CCOc2ccc(/C=C3\Oc4c(C(N)=O)cccc4C3=O)cc2)CC1` showed an IC50 of 0.114 µM. Take `NC(=O)c1cccc2c1O/C(=C\c1ccc(Cl)cc1)C2=O`: the half-maximal inhibitory concentration (IC50) was determined as 6.09 µM. On to `NC(=O)c1nn(CCCN2C(=O)C(=O)c3ccccc32)c2ccccc12`, for which the IC50 came to 6.8 µM. For the compound `NC(=O)c1cccc2c1O/C(=C\c1ccccc1O)C2=O`, the IC50 is more than 10 µM. As for `NC(=O)c1cccc2c1O/C(=C\c1cccc(O)c1)C2=O`, the IC50 stood at 2.14 µM. In turn, `C[C@@H]1Cc2cc(F)cc(C(N)=O)c2O1` came in with an IC50 of 1.53 µM. Turning to `NC(=O)c1cccc2c1O/C(=C\c1ccc(OCC(=O)N3CCOCC3)cc1)C2=O`, the IC50 came to 0.223 µM. `NC(=O)c1cc(Br)cc2c1OCC2` gave a half-inhibitory concentration (IC50) of more than 25 µM.

Test system in the next data set: not listed separately
Kind of data set: Cytotoxicity against chicken wild-type DT40 cells assessed as cell viability at 10 uM after 72 hrs by ATPlite assay. In kind it is cell-based, Gallus gallus. Particulars: dt40, 72 h.
With `C[C@]1(c2nc3c(C(N)=O)cccc3[nH]2)CCCN1` [VELIPARIB], the Activity entry is listed as “Non-toxic”. Regarding `CN1CCN(CCOc2ccc(/C=C3\Oc4c(C(N)=O)cccc4C3=O)cc2)CC1`, the Activity entry is “Toxic”.

Test system in a further data set: not listed separately
The experiment in a line: Cytotoxicity against chicken PARP1-deficient DT40 cells assessed as cell viability at 10 uM after 72 hrs by ATPlite assay. Format: cell-based, Gallus gallus. Particulars: dt40, 72 h.
Turning to `C[C@]1(c2nc3c(C(N)=O)cccc3[nH]2)CCCN1` [VELIPARIB], the Activity entry is listed as “Non-toxic”.

With `CN1CCN(CCOc2ccc(/C=C3\Oc4c(C(N)=O)cccc4C3=O)cc2)CC1`, the Activity result is recorded as “Toxic”.
